# Measurements taken from patent US8846698B2, “Pyrrolo[2,3-d]pyrimidine tropomysin-related kinase inhibitors” (Pfizer Limited, priority 2011, dated 2014).
# Where two headings read alike, the source gives them in different places.
# Experiments:
# TRKA [1] = molecular target: T1, TRKA (Homo sapiens (Human), UniProt P04629); assay: Cell based DiscoveRx PathHunter antagonist assay, TRKA cell line; conditions: read-out: TrkA cell potency
# Target sequence in this assay (P04629 33-796): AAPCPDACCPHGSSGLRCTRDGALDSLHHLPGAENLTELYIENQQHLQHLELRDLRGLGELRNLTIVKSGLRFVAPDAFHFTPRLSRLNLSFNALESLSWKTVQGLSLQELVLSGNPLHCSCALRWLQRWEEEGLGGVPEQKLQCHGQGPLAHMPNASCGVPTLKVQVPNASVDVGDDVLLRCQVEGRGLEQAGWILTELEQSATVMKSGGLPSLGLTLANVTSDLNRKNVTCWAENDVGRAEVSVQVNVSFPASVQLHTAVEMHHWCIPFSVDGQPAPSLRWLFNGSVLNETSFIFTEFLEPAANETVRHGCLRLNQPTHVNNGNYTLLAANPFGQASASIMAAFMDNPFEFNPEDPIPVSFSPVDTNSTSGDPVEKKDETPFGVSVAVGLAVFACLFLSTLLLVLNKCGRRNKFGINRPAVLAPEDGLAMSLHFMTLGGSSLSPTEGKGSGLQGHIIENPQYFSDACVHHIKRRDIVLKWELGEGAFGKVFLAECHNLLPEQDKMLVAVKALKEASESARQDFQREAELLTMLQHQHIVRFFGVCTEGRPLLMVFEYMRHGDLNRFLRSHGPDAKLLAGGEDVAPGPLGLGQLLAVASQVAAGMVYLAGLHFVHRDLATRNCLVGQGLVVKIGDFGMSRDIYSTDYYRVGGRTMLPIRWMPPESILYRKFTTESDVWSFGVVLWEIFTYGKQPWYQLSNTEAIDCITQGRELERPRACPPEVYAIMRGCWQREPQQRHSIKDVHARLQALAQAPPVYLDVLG
# BCRP (ABCG2) = BCRP (ABCG2) (Homo sapiens (Human), UniProt Q9UNQ0); assay: MDCK-BCRP efflux assay (in vitro brain penetration); type: in vitro ADME; conditions: dog; for Papp A→B: A to B, read-out: RRCK BCRP Papp AB; for Papp B→A: B to A, read-out: RRCK BCRP Papp BA
# TRKB [2] = molecular target: T2, TRKB (Homo sapiens (Human), UniProt Q16620); assay: biochemical
# TRKB [3] = molecular target: T2, TRKB; assay: cell-based; conditions: TrkB cell potency, TRKB PathHunter cell line
# TRKA [4] = molecular target: T1, TRKA; assay: Isolated TRK enzyme assay (HTRF KinEASE-TK), TRKA; type: biochemical; conditions: isolated TRKA enzyme; read-out: TrkA enzyme potency
# Target sequence in this assay (P04629 441-796): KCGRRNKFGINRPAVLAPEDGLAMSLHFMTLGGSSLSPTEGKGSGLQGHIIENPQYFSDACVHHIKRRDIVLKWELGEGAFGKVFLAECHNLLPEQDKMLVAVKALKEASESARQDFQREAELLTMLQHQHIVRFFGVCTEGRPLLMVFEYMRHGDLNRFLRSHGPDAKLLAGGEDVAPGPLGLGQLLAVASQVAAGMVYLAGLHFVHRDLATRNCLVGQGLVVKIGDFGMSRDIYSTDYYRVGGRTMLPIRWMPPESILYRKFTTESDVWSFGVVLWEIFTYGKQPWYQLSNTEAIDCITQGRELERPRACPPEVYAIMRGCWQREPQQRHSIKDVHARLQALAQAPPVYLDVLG
# MDR1 = MDR1 (Homo sapiens (Human), UniProt P08183); assay: MDCK-MDR1 assay (in vitro brain penetration); type: in vitro ADME; conditions: for Papp A→B / Papp B→A: human; for Papp A→B: read-out: MDCK MDR1 Papp AB; for Papp B→A: read-out: MDCK MDR1 Papp BA
# Text: MDCK-MDR1: MDCK-MDR1 data were collected according to the method described in “Are MDCK Cells Transfected with the Human MDR1 Gene a Good Model of the Human Intestinal Mucosa?”
# http://www.springerlink.com/content/qfhqlqbr4fnp3 khf/fulltext.pdf
# TRKC = TRKC (Homo sapiens (Human), UniProt Q16288); assay: Cell based DiscoveRx PathHunter antagonist assay, TRKC cell line; conditions: read-out: TrkC cell potency
# Description: After the Detection Reagent addition, plates are covered and incubated at room temperature for 60 minutes. […] Test compound data are expressed as percentage inhibition defined by HPE and ZPE values for each plate. Percentage inhibition in the presence of test compound is plotted against compound concentration on a log scale to determine an IC50 from the resultant sigmoid curve. Cell Based Assays were carried out using Cell lines from DiscoveRx utilising their PathHunter technology and reagents in an antagonist assay:
# The assays are based upon DiscoveRx's proprietary Enzyme Fragment Complementation (EFC) technology. In the case of the TRK cell lines, the enzyme acceptor (EA) protein is fused to a SH2 protein and the TRK receptor of interest has been tagged with a Prolink tag.
# Upon neurotrophin binding, the TRK receptor becomes phosphorylated, and the tagged SH2 protein binds.
# This means that the IC50 is a good measure of affinity and should be unaffected by concentration neurotrophin stimulant.
# Cryopreserved PathHunter cells are used from either in-house produced batches or bulk batches bought directly from DiscoveRx. Cryopreserved cells are resuscitated, spun 1000 rpm for 4 min to remove freezing media, and resuspended in MEM+0.5% horse serum (both Invitrogen) to 5e^5 cells/ml. The cells are then plated using a Multidrop into Greiner white tissue culture treated plates at 20 ul/well and incubated for 24 h at 37° C., 5% CO2, high humidity. On the day of the assay, the cell plates are allowed to cool to room temperature for 30 min prior to the assay.
# Plates containing 1 ul of serially diluted compound, standard and HPE/ZPE are diluted 1/66 in assay buffer (PBS minus Ca^2+, minus Mg^2+ with 0.05% pluronic F127) using a Wellmate. […] The plates are left at room temperature for a further 2 hours before addition of 10 ul of the DiscoveRx PathHunter detection reagent (made up by adding 1 part Galacton Star, 5 parts Emerald II and 19 parts Cell Assay Buffer as per the manufacturer's instructions).
# After reagent addition, plates are covered and incubated at room temperature for 60 minutes. Luminescence signal is read using an Envision. Test compound data are expressed as percentage inhibition defined by HPE and ZPE values for each plate. Percentage inhibition in the presence of test compound is plotted against compound concentration on a log scale to determine an […] from the resultant sigmoid curve.
# [5] = isolated TRKB enzyme, read-out: TrkB enzyme potency
# Sequence of TRKC (Q16288 32-839): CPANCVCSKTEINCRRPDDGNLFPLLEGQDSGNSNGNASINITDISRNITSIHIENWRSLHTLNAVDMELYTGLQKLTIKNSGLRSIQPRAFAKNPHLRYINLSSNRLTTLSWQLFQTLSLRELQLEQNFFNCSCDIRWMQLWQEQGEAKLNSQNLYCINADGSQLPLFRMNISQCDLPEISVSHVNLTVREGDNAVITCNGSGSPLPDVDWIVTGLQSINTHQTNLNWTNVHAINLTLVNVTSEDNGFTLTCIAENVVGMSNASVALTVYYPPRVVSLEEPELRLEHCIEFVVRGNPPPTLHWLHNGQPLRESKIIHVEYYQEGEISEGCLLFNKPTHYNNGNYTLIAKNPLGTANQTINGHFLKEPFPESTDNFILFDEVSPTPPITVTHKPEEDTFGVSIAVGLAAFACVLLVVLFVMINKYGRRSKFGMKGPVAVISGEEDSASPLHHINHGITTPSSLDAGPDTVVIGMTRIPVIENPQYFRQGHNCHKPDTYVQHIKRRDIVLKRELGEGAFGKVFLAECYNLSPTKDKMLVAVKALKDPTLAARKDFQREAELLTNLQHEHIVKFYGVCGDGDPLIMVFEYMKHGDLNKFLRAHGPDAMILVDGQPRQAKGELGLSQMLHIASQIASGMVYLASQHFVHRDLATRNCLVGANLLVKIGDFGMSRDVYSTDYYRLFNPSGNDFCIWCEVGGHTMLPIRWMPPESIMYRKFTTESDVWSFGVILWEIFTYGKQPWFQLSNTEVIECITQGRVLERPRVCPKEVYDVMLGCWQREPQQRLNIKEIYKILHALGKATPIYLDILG
# T2 sequence (Q16620 32-822 limits assumed): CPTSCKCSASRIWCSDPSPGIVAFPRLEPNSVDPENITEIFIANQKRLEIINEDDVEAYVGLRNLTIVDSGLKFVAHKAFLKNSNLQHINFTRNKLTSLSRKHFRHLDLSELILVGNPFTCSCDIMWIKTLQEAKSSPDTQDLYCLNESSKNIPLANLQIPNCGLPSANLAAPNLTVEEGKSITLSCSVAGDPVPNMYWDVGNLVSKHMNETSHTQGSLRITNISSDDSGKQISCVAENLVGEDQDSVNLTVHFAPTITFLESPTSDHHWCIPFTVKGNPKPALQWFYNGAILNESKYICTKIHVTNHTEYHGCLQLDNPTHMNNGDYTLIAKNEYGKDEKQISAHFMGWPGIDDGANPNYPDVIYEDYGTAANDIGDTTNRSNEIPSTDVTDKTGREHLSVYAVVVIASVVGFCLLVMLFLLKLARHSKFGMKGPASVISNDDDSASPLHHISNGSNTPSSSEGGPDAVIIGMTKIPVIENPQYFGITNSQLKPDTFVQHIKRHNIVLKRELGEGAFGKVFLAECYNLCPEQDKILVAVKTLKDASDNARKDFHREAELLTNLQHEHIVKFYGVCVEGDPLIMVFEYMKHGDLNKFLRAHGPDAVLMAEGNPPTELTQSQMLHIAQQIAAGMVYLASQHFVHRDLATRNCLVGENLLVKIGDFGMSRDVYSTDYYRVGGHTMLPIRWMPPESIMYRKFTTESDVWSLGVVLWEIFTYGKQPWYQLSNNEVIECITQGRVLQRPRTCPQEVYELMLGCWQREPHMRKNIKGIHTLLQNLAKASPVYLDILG
# Sequence of MDR1 (P08183 whole entry): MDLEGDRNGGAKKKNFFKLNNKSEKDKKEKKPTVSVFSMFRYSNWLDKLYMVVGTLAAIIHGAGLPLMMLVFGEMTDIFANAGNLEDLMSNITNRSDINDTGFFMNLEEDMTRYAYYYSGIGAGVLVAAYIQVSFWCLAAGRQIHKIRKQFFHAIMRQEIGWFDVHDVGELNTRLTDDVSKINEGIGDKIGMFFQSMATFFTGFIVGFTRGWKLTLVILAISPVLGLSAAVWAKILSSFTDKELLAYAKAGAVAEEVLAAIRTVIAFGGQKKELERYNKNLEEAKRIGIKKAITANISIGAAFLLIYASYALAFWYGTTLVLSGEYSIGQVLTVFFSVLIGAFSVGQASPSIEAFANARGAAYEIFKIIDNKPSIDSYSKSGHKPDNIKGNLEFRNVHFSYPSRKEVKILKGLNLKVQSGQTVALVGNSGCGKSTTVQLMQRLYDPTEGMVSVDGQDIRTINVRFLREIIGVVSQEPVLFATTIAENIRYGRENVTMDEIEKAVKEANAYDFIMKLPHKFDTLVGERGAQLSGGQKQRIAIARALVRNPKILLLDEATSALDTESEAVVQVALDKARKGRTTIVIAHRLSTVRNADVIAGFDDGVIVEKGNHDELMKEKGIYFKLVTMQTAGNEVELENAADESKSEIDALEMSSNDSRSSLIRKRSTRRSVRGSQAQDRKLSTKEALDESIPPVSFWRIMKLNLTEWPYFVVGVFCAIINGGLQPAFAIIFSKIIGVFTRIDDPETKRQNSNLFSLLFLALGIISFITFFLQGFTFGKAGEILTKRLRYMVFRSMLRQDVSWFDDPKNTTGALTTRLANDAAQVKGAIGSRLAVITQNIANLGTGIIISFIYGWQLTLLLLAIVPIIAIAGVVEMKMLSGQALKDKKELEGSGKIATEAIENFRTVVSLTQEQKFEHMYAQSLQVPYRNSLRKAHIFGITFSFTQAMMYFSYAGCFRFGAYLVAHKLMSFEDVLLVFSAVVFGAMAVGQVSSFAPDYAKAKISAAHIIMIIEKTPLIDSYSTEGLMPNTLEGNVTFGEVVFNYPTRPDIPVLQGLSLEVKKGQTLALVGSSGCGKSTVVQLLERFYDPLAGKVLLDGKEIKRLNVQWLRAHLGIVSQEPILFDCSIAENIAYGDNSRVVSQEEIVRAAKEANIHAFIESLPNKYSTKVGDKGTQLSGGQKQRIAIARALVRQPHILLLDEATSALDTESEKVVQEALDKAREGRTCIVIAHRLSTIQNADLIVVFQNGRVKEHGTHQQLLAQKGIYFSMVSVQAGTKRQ
# Sequence of BCRP (ABCG2) (Q9UNQ0 whole entry): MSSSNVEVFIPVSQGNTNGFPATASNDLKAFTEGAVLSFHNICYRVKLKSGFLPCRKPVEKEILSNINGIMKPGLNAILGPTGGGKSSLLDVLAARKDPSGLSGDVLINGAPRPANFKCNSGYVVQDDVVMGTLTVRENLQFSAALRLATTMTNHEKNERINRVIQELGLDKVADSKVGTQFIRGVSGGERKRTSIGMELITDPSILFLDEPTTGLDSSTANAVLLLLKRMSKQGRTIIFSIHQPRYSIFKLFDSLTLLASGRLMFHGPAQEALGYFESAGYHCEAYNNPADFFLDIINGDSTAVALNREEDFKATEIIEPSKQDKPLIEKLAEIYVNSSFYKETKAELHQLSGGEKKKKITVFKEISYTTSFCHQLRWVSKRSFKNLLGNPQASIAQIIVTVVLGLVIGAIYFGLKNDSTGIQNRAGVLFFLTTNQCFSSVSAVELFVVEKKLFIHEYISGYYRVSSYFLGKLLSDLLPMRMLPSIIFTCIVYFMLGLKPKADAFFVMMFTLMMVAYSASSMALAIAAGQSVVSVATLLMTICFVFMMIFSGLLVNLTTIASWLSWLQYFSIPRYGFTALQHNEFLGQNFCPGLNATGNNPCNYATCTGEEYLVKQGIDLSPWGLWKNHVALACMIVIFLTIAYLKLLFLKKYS
Structure (SMILES),IC50 (TRKA [1]) [nM],Papp A→B (BCRP (ABCG2)) [×10⁻⁶ cm/s],Papp B→A (BCRP (ABCG2)) [×10⁻⁶ cm/s],IC50 (TRKB [2]; TrkB enzyme potency) [nM],IC50 (TRKB [3]) [nM],IC50 (TRKA [4]) [nM],"Papp A→B (MDR1; MDCK-MDR1, A to B) [×10⁻⁶ cm/s]","Papp B→A (MDR1; MDCK-MDR1, B to A) [×10⁻⁶ cm/s]",IC50 (TRKC) [nM],IC50 (TRKB [2]; [5]) [nM],"Papp B→A (MDR1; MDCK-MDR1, MDCK-MDR1, B to A) [×10⁻⁶ cm/s]","MDCK MDR1 Papp AB (MDR1; MDCK-MDR1, A to B) [×10⁻⁶ cm/s]","MDCK MDR1 Papp BA (MDR1; MDCK-MDR1, B to A) [×10⁻⁶ cm/s]"
"Cc1cc(C(F)(F)F)nn1CC(=O)Nc1cncc(C(=O)c2cn(C(C)(C)CO)c3ncncc23)c1 [Example 26, N-(5-{[7-(2-hydroxy-1,1-dimethylethyl)-7H-pyrrolo[2,3-d]pyrimidin-5-yl]carbonyl}pyridin-3-yl)-2-[5-methyl-3-(trifluoromethyl)-1H-pyrazol-1-yl]acetamide]",14,7.5,32,30,5.9,3.5,< 1,16,8.6,–,–,–,–
"C[C@@H](CO)n1cc(C(=O)c2cncc(NC(=O)Cc3ccc(C(F)(F)F)cc3)c2)c2cncnc21 [Example 9, N-[5-({7-[(1S)-2-Hydroxy-1-methylethyl]-7H-pyrrolo[2,3-d]pyrimidin-5-yl}carbonyl)pyridin-3-yl]-2-[4-(trifluoromethyl)phenyl]acetamide]",13,9,43,–,6.6,3.7,< 1,–,5.9,94,20,–,–
"CC(C)(C)n1cc(C(=O)c2cncc(NC(=O)Cn3cc(C4CC4)nn3)c2)c2cncnc21 [Example 4, N-{5-[(7-tert-butyl-7H-pyrrolo[2,3-d]pyrimidin-5-yl)carbonyl]pyridin-3-yl}-2-(4-cyclopropyl-1H-1,2,3-triazol-1-yl)acetamide]",5.7,12,39,162,6.5,3.9,< 1,13,4.4,–,–,–,–
"CC(C)(CO)n1cc(C(=O)c2cncc(NC(=O)Cc3ccc(C(F)(F)F)cc3)c2)c2cncnc21 [Example 27, N-(5-{[7-(2-hydroxy-1,1-dimethylethyl)-7H-pyrrolo[2,3-d]pyrimidin-5-yl]carbonyl}pyridin-3-yl)-2-[4-(trifluoromethyl)phenyl]acetamide]",3.9,–,–,–,5.4,2.8,< 1,–,3.2,55,17,–,–
"CC(C)(CO)n1cc(C(=O)c2cncc(NC(=O)Cc3ccc(F)cn3)c2)c2cnc(N)nc21 [Example 51, N-(5-{[2-amino-7-(2-hydroxy-1,1-dimethylethyl)-7H-pyrrolo[2,3-d]pyrimidin-5-yl]carbonyl}pyridin-3-yl)-2-(5-fluoropyridin-2-yl)acetamide]",35,–,–,–,7.5,7.8,< 1,–,9.9,198,11,–,–
"CC(C)(CO)n1cc(C(=O)c2cncc(NC(=O)Cc3ccc(Cl)cn3)c2)c2cnc(N)nc21 [Example 46, N-(5-{[2-Amino-7-(2-hydroxy-1,1-dimethylethyl)-7H-pyrrolo[2,3-d]pyrimidin-5-yl]carbonyl}pyridin-3-yl)-2-(5-chloropyridin-2-yl)acetamide]",–,7,31,–,–,–,< 1,–,–,–,18,–,–
"CC(C)(CO)n1cc(C(=O)c2cncc(NC(=O)Cn3ccc(C(F)(F)F)n3)c2)c2cnc(N)nc21 [Example 52, N-(5-{[2-amino-7-(2-hydroxy-1,1-dimethylethyl)-7H-pyrrolo[2,3-d]pyrimidin-5-yl]carbonyl}pyridin-3-yl)-2-[3-(trifluoromethyl)-1H-pyrazol-1-yl]acetamide]",22,–,–,103,16,3.1,< 1,9.1,8.1,–,–,–,–
"CC(CO)n1cc(C(=O)c2cncc(NC(=O)Cc3ccc(Cl)cc3)c2)c2cnc(N)nc21 (single isomer, unassigned) [Example 42, N-(5-{[2-amino-7-(2-hydroxy-1-methylethyl)-7H-pyrrolo[2,3-d]pyrimidin-5-yl]carbonyl}pyridin-3-yl)-2-(4-chlorophenyl)acetamide]",44,–,–,–,27,3.8,–,–,13,191,–,<1,9.5
